Data from the supplement of paper PMC4977894.
± gives the standard deviation of the averaged measurements.

What was measured:
[1] = tested on: Homo sapiens (human subject panel, olfactory perception); test: perceived odor pleasantness rating (rating 0-100); higher = more pleasant
Method: (§1)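 Human olfactory psychophysics. 55 healthy subjects (after excluding 6 low performers) sniffed 1 mL of each odorant diluted in paraffin oil (vials, two dilutions per molecule, 20 molecules presented twice). Each subject rated intensity, pleasantness and familiarity on a 0-100 slider, starting at 50 and required to move. Ratings were given only when the subject reported detecting a smell; per-subject ratings are averaged over subjects.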

[2] = tested on: Homo sapiens (human subject panel, olfactory perception); test: perceived odor intensity rating (rating 0-100); higher = stronger perceived smell
Method: as §1

[3] = tested on: Homo sapiens (human subject panel, olfactory perception); test: perceived odor familiarity rating (rating 0-100); higher = more familiar
Method: as §1

[4] = odor dilution in paraffin oil: 1/10
[5] = odor dilution in paraffin oil: 1/1,000
[6] = odor dilution in paraffin oil: 1/100,000
[7] = odor dilution in paraffin oil: 1/10,000,000

## CCCCC(C)CCC(=O)O (racemic) [(±)-4-Methyloctanoic acid]
[1]; [4]
  perceived odor pleasantness rating: 27.4 ± 25
[1]; [5]
  perceived odor pleasantness rating: 29 ± 20
[2]; [4]
  perceived odor intensity rating: 72.5 ± 25
[2]; [5]
  perceived odor intensity rating: 67.2 ± 25
[3]; [4]
  perceived odor familiarity rating: 41.7 ± 32
[3]; [5]
  perceived odor familiarity rating: 48.6 ± 30

## NC(Cc1ccccc1)C(=O)O (racemic) [DL-Phenylalanine (replicate)]
[1]; [4]
  perceived odor pleasantness rating: 44.6 ± 25
[1]; [5]
  perceived odor pleasantness rating: 50.4 ± 23
[2]; [4]
  perceived odor intensity rating: 66.3 ± 24
[2]; [5]
  perceived odor intensity rating: 39.2 ± 29
[3]; [4]
  perceived odor familiarity rating: 48.2 ± 29
[3]; [5]
  perceived odor familiarity rating: 39.2 ± 26

## NC(Cc1ccccc1)C(=O)O (racemic) [DL-Phenylalanine]
[1]; [4]
  perceived odor pleasantness rating: 38.2 ± 26
[1]; [5]
  perceived odor pleasantness rating: 51.4 ± 27
[2]; [4]
  perceived odor intensity rating: 70 ± 24
[2]; [5]
  perceived odor intensity rating: 35.2 ± 29
[3]; [4]
  perceived odor familiarity rating: 43.4 ± 31
[3]; [5]
  perceived odor familiarity rating: 41.9 ± 29

## O=C(O)C(O)C(O)C(=O)O (racemic) [DL-Tartaric acid]
[1]; [4]
  perceived odor pleasantness rating: 48.3 ± 20
[1]; [5]
  perceived odor pleasantness rating: 52.1 ± 19
[2]; [4]
  perceived odor intensity rating: 30.6 ± 30
[2]; [5]
  perceived odor intensity rating: 26.4 ± 30
[3]; [4]
  perceived odor familiarity rating: 40.5 ± 25
[3]; [5]
  perceived odor familiarity rating: 26.4 ± 28

## C=C(C)C1CC=C(C)C(=O)C1 (single isomer, unassigned; (-)) [(-)-Carvone]
[1]; [4]
  perceived odor pleasantness rating: 78.6 ± 16
[1]; [5]
  perceived odor pleasantness rating: 78.2 ± 19
[2]; [4]
  perceived odor intensity rating: 84.3 ± 15
[2]; [5]
  perceived odor intensity rating: 72.6 ± 20
[3]; [4]
  perceived odor familiarity rating: 81.2 ± 24
[3]; [5]
  perceived odor familiarity rating: 77.9 ± 25

## C=C1CCC2CC1C2(C)C (single isomer, unassigned; (-)) [(-)-beta-Pinene]
[1]; [4]
  perceived odor pleasantness rating: 50.5 ± 30
[1]; [5]
  perceived odor pleasantness rating: 54.8 ± 22
[2]; [4]
  perceived odor intensity rating: 74.2 ± 22
[2]; [5]
  perceived odor intensity rating: 32.2 ± 31
[3]; [4]
  perceived odor familiarity rating: 62.1 ± 31
[3]; [5]
  perceived odor familiarity rating: 47.8 ± 29

## CC(C)=CCCC(C)CCO (single isomer, unassigned; (-)) [(-)-citronellol]
[1]; [5]
  perceived odor pleasantness rating: 53.5 ± 30
[1]; [6]
  perceived odor pleasantness rating: 61.3 ± 22
[2]; [5]
  perceived odor intensity rating: 71.5 ± 27
[2]; [6]
  perceived odor intensity rating: 41.6 ± 33
[3]; [5]
  perceived odor familiarity rating: 57.9 ± 31
[3]; [6]
  perceived odor familiarity rating: 49.6 ± 28

## COc1cccc(OC)c1 [1,3-Dimethoxybenzene]
[1]; [5]
  perceived odor pleasantness rating: 49.7 ± 26
[1]; [6]
  perceived odor pleasantness rating: 45.8 ± 28
[2]; [5]
  perceived odor intensity rating: 68.4 ± 22
[2]; [6]
  perceived odor intensity rating: 32.6 ± 30
[3]; [5]
  perceived odor familiarity rating: 54.1 ± 26
[3]; [6]
  perceived odor familiarity rating: 33.2 ± 27

## O=C(Cc1ccccc1)Cc1ccccc1 [1,3-Diphenyl-2-propanone]
[1]; [5]
  perceived odor pleasantness rating: 32.7 ± 29
[1]; [6]
  perceived odor pleasantness rating: 43 ± 27
[2]; [5]
  perceived odor intensity rating: 78.1 ± 20
[2]; [6]
  perceived odor intensity rating: 35.4 ± 28
[3]; [5]
  perceived odor familiarity rating: 49.7 ± 34
[3]; [6]
  perceived odor familiarity rating: 48.1 ± 30

## SCCCCCCS [1,6-Hexanedithiol]
[1]; [6]
  perceived odor pleasantness rating: 24.9 ± 26
[1]; [7]
  perceived odor pleasantness rating: 40.1 ± 25
[2]; [6]
  perceived odor intensity rating: 74.8 ± 24
[2]; [7]
  perceived odor intensity rating: 33.8 ± 34
[3]; [6]
  perceived odor familiarity rating: 51.5 ± 33
[3]; [7]
  perceived odor familiarity rating: 36.8 ± 29

## CC12CCC(CC1)C(C)(C)O2 [1,8-cineole]
[1]; [5]
  perceived odor pleasantness rating: 62.5 ± 24
[1]; [6]
  perceived odor pleasantness rating: 61.5 ± 25
[2]; [5]
  perceived odor intensity rating: 70.1 ± 24
[2]; [6]
  perceived odor intensity rating: 45.5 ± 29
[3]; [5]
  perceived odor familiarity rating: 69.7 ± 25
[3]; [6]
  perceived odor familiarity rating: 53.5 ± 30

## c1coc(Cn2cccc2)c1 [1-Furfurylpyrrole]
[1]; [5]
  perceived odor pleasantness rating: 28.7 ± 24
[1]; [6]
  perceived odor pleasantness rating: 46.8 ± 19
[2]; [5]
  perceived odor intensity rating: 76.3 ± 22
[2]; [6]
  perceived odor intensity rating: 30.9 ± 29
[3]; [5]
  perceived odor familiarity rating: 40.7 ± 32
[3]; [6]
  perceived odor familiarity rating: 34.3 ± 25

## C=CC(O)CCCC (configuration not stated) [1-Hepten-3-ol]
[1]; [5]
  perceived odor pleasantness rating: 24.3 ± 25
[1]; [6]
  perceived odor pleasantness rating: 37.3 ± 26
[2]; [5]
  perceived odor intensity rating: 83.2 ± 18
[2]; [6]
  perceived odor intensity rating: 53.7 ± 31
[3]; [5]
  perceived odor familiarity rating: 41 ± 31
[3]; [6]
  perceived odor familiarity rating: 44.4 ± 32

## CCCCCCCCCCCCCCCCO [1-Hexadecanol]
[1]; [4]
  perceived odor pleasantness rating: 43 ± 24
[1]; [5]
  perceived odor pleasantness rating: 35.4 ± 24
[2]; [4]
  perceived odor intensity rating: 43.5 ± 31
[2]; [5]
  perceived odor intensity rating: 35.8 ± 26
[3]; [4]
  perceived odor familiarity rating: 40.1 ± 30
[3]; [5]
  perceived odor familiarity rating: 42.6 ± 27

## COc1cc(C)ccc1C(C)C [1-Methyl-3-methoxy-4-isopropylbenzene]
[1]; [5]
  perceived odor pleasantness rating: 43.8 ± 21
[1]; [6]
  perceived odor pleasantness rating: 47.5 ± 18
[2]; [5]
  perceived odor intensity rating: 45.5 ± 28
[2]; [6]
  perceived odor intensity rating: 23.1 ± 25
[3]; [5]
  perceived odor familiarity rating: 51.6 ± 30
[3]; [6]
  perceived odor familiarity rating: 42.9 ± 35

## C=CC(O)CCCCC (configuration not stated) [1-Octen-3-ol]
[1]; [5]
  perceived odor pleasantness rating: 40.3 ± 27
[1]; [6]
  perceived odor pleasantness rating: 42.2 ± 20
[2]; [5]
  perceived odor intensity rating: 66.5 ± 26
[2]; [6]
  perceived odor intensity rating: 37.7 ± 30
[3]; [5]
  perceived odor familiarity rating: 45.4 ± 32
[3]; [6]
  perceived odor familiarity rating: 39.4 ± 27

## C=CC(CCCCC)OC(C)=O (configuration not stated) [1-Octen-3-yl acetate]
[1]; [5]
  perceived odor pleasantness rating: 34.1 ± 22
[1]; [6]
  perceived odor pleasantness rating: 42.9 ± 24
[2]; [5]
  perceived odor intensity rating: 55.9 ± 29
[2]; [6]
  perceived odor intensity rating: 26.4 ± 26
[3]; [5]
  perceived odor familiarity rating: 35.2 ± 29
[3]; [6]
  perceived odor familiarity rating: 32.8 ± 27
